Consider 10 molecules from patent US20130165398A1, “CONCENTRATION-ENHANCING DRINK” (priority 2010, published 2013).

“And” between values parts separate entries of the source, which are not always exact repeats. Identical values can stand only once. “Also recorded” adds a separate entry of the source.

In assay [1] the test system is 293mitoPARP cells. The experiment in a line: Cell viability by MTT assay, 293mitoPARP cells. Particulars: for cell survival with substance as extracellular precursor: NamPRT inhibited by FK866, FIG. 3A. The format is cell-based, human. (In general: Formazan colour is commonly taken as a measure of viable cells.)
Protocol: (§4) Inhibitors (2 μm FK866, 2 mM 3-AB, 10 μm NBTI, 2 μm dipyridamol, 2 mM CMP, 25 μm PPADS, 1 mM Ap4A) or metabolites (100 μM NAD^+, 100 μM NAAD, 100 μM NMN, 100 μM NAMN, 100 μM NA, 100 μM NR) were added to the cell culture medium as stated. […] The treatment with inhibitors and metabolites was carried out for 24-48 h before analysis of PAR formation and the viability of the cells (72 h for 293mitoPARP cells, 96 h for HeLa S3 cells and 120 h for HepG2 cells). The viability of the cells was determined by MTT assay.
Assay [2] relates to HeLa S3 cells. The assay is described as follows: Cell viability by MTT assay, HeLa S3 cells. It counts as cell-based, human. The note with it: for cell survival with substance as extracellular precursor: FK866, FIG. 3B.
Protocol: as §4
A short description of assay [3]: Triple test method: biomedical test battery (breathing rate, skin conductance level, heart rate), index of physiological/mental stress. It counts as in vivo, human. Here is the method:
(§1) Hereinafter the present invention is tested in the context of the Viewpointsystem® vision analyses, using standardized methods of investigation of the Vienna test system and using biomedical studies for stress research. In this method, in the vision laboratory, the triple test method is used with extremely high accuracy for evaluating psychophysical effects up to the degree of attention (cf. EP 1 300 108 A1, WO 2008/151346 A1).
(§2) 12 subjects were subdivided into 3 groups each of 4 subjects:
(§3) (1) drink according to the invention (150 mg of EGCG/20 mg of NR in 10 ml of H2O; “energy” or “energy-drink” group (2) EGCG alone (150 mg of EGCG; “green tea” group) (3) placebo (H2O and mannitol; “placebo” group)
The subjects were then studied systematically with respect to possible effects using the triple test study method, that is vps vision analyses—Vienna test system—biomedical test battery, in a standardized study, in such a manner that objective, statistically significant statements were made possible on the detection of concentration-enhancing activity of the drink according to the invention.
In parallel thereto, the relevant biomedical characteristics such as skin conductivity, pulse were also detected and evaluated. In total, therefore, in the course of the triple-test studies, for all action-relevant evaluation situations, gaze studies were carried out in the gaze laboratory, the gaze behavior and reaction times were analyzed. The effects on information uptake, including information stress and fatigue, were documented using the standardized gaze methods by raster-analysis programs.
After a baseline measurement, the study follows, wherein, inter alia, the following values are recorded: • heart frequency (HF: number of heart beats/minute) • blood volume pulse (BVP: measure of amount of blood which is pumped through the body per heart beat) • skin conductance value (SCL: skin conductance level/conductivity level, tonic measure, SCR: skin conductance response/phasic measure; reaction to individual stimuli)
In the detailed analyses, at the same time the gaze and biomedical data of the study sequences [reaction test (singular stimuli), determination test (multiple optical, acoustic stimuli), film viewing (real sequences from driver viewpoint and film trailers) and semiotics (animal pictures and logos)] were evaluated. Particular attention was paid to the skin conductance level (SCL), the heart rate (pulse; HR) and the breathing rate (AF).
After the physiological parameters were determined, for each section the statistical parameters mean/standard deviation/min/max/range/85% percentile were determined. In addition, the trend line equations were calculated.
For further statistical detailed evaluation, the 85% percentile values were used and the relative differences were compiled using the before/after relationship. This change was totaled as a dimension number.
After categorization of the subjects into 3 comparison groups, the dimension numbers were summed and represent an index of the physiological/mental stress of the subjects. The lower the number, the “more relaxed” the solving of the tasks by the subjects.

Assay [4] in a line: Triple test method: synchronous gaze studies (Viewpointsystem vision analyses: gaze latencies, blinking, pupil adaptation). It counts as in vivo, human. Here is the method: as §1, §2, §3
Using this test system, the changes in attention, vision behavior, reaction, activation and stress were determined in the three groups. In this process the real directions of gaze and gaze motions of subjects were determined in the course of the Vienna test system—in the reaction and determination test, and also in considering defined situation sequences (standardized preset image and film sequences with events) and for selected specific suitability tests—filmed and recorded from the respective field of view (cf. EP 1 300 108 A1, WO 2008/151346 A1). […]

Another assay has as its system NMNAT1. The experiment in a line: Expression of NMNAT1 after adding EGCG to human cells. It counts as cell-based. The note with it: EGCG added to human cells.
Assay [5] concerns 293mitoPARP cells. The experiment in a line: Mitochondrial NAD+ content by mitoPARP PAR formation, 293mitoPARP cells. It counts as cell-based, human. The note with it: NamPRT inhibited by FK866, FIG. 3A.
Protocol: (§5) Inhibitors (2 μm FK866, 2 mM 3-AB, 10 μm NBTI, 2 μm dipyridamol, 2 mM CMP, 25 μm PPADS, 1 mM Ap4A) or metabolites (100 μM NAD^+, 100 μM NAAD, 100 μM NMN, 100 μM NAMN, 100 μM NA, 100 μM NR) were added to the cell culture medium as stated. […] The treatment with inhibitors and metabolites was carried out for 24-48 h before analysis of PAR formation and the viability of the cells (72 h for 293mitoPARP cells, 96 h for HeLa S3 cells and 120 h for HepG2 cells). The viability of the cells was determined by MTT assay. 293mitoPARP cells were prepared that express a fusion protein (“mitoPARP”), consisting of EGFP and PARP1cd (poly-ADP-ribose polymerase-1) which was targeted to the mitochondrial matrix. With mitochondrial NAD^+ as substrate, these cells generate protein-bound PAR (protein-bound poly-ADP ribose) constitutively, which is visualized immunochemically. Variations in the extent of the PAR detected thereby reflect changes in the mitochondrial NAD^+ content. Likewise, the transient expression of mitoPARP in HepG2 and HeLa S3 cells was used.
The next assay concerns HepG2 cells. Particulars: FK866, FIG. 3C. The method, then: Inhibitors (2 μm FK866, 2 mM 3-AB, 10 μm NBTI, 2 μm dipyridamol, 2 mM CMP, 25 μm PPADS, 1 mM Ap4A) or metabolites (100 μM NAD^+, 100 μM NAAD, 100 μM NMN, 100 μM NAMN, 100 μM NA, 100 μM NR) were added to the cell culture medium as stated. NR was prepared as described (Dölle et al., Anal, Biochem. 385 (2009), 377-379). The treatment with inhibitors and metabolites was carried out for 24-48 h before analysis of PAR formation and the viability of the cells (72 h for 293mitoPARP cells, 96 h for HeLa S3 cells and 120 h for HepG2 cells). The viability of the cells was determined by MTT assay.

The subject of another assay is mitochondrial NAD^+. The experiment in a line: Mitochondrial NAD+ content by mitoPARP PAR formation, cell line not stated. The format is cell-based, human. Particulars: for mitochondrial PAR formation from the extracellular precursor on overexpression of NRK1: FIG. 6; for effect of the inhibitor on NR usage: NR as extracellular precursor, FIG. 4B; for function of NMN as extracellular NAD+ precursor in presence of the inhibitor: plasma membrane nucleoside transporter inhibitor added.

Assay [6] has as its system HeLa S3 cells. The experiment in a line: Mitochondrial NAD+ content by mitoPARP PAR formation, HeLa S3 cells. It counts as cell-based, human. Particulars: FK866, FIG. 3B.
Protocol: as §5
In the next assay the test system is human cells. The assay is described as follows: Cell viability by MTT assay, cell line not stated. The format is cell-based. Particulars: NPP inhibitor added.
Where [7] appears, read: CMP competes with NMN for external 5'-nucleotidase.
Where [8] appears, read: semiotics (animal pictures and logos), group sum.

Protocol for mitochondrial NAD^+: as §4
293mitoPARP cells were prepared that express a fusion protein (“mitoPARP”), consisting of EGFP and PARP1cd (poly-ADP-ribose polymerase-1) which was targeted to the mitochondrial matrix. With mitochondrial NAD^+ as substrate, these cells generate protein-bound PAR (protein-bound poly-ADP ribose) constitutively, which is visualized immunochemically. Variations in the extent of the PAR detected thereby reflect changes in the mitochondrial NAD^+ content. Likewise, the transient expression of mitoPARP in HepG2 and HeLa S3 cells was used.

As for `Nc1ccn([C@@H]2O[C@H](COP(=O)(O)O)[C@@H](O)[C@H]2O)c(=O)n1` [CMP], the “cell viability with NMN as precursor on addition of CMP” value in the assay with 293mitoPARP cells [1] (setting [7]) and with HeLa S3 cells [2] (setting [7]) was “decreases the cell viability” each time.
As for `O=C(O[C@@H]1Cc2c(O)cc(O)cc2O[C@@H]1c1cc(O)c(O)c(O)c1)c1cc(O)c(O)c(O)c1` [EGCG, (2R,3R)-2-(3,4,5-trihydroxyphenyl)-3,4-dihydro-1(2H)-benzopyran-3,5,7-triol 3-(3,4,5-trihydroxybenzoate)], in assay [3] (RT+DT+Film+Animals, group sum), the “AF (breathing rate) dimension number, Total” value was 14.21; the “HR (heart rate) dimension number, Total” value turned out to be 13.90; the “SCL (skin conductance level) dimension number, Total” value came out at 17.79. Further, in [3] (T1+T2, individual subject, lower = more relaxed, listed as Green tea group), the “dimension number TOTAL” value is 10.25 and 12.53 and 12.39 and 10.78. In addition, in [3] (T1+T2, mean of 4 subjects), the “dimension number TOTAL, group Mean” value was determined as 11.49. Moreover, the “dimension number TOTAL, group Total” value in [3] (T1+T2, sum of 4 subjects) was 45.95. Besides, the “dimension number T1” value in assay [3] (T1: Vienna test system: reaction test/determination test, individual subject, summed relative before/after differences of 85% percentile values, lower = more relaxed, listed as Green tea group) was 4.81 and 5.51 and 6.86 and 5.11. Moreover, the “dimension number T1, group Mean” value in assay [3] (T1: reaction test/determination test, mean of 4 subjects) was found to be 5.57. In assay [3] (T1: reaction test/determination test, sum of 4 subjects), the “dimension number T1, group Total” value is on record as 22.29. Besides, the “dimension number T2” value in assay [3] (T2: Viewing film sequences/trailers/logos/animals, individual subject, lower = more relaxed, listed as Green tea group) was 5.45 and 7.02 and 5.53 and 5.67. In addition, the “dimension number T2, group Mean” value in assay [3] (T2: film sequences/trailers/logos/animals, mean of 4 subjects) came to 5.92. Moreover, the “dimension number T2, group Total” value in [3] (T2: film sequences/trailers/logos/animals, sum of 4 subjects) was 23.67. Moreover, in [3] (determination test, group sum), the “HR (heart rate) dimension number, DT” value was 3.44 and the “SCL (skin conductance level) dimension number, DT” value was found to be 4.17. For the same molecule, the “AF (breathing rate) dimension number, DT” value in assay [3] (determination test, group sum, listed as Group 3) is 3.63 and 3.67. Further, in assay [3] (film viewing, group sum), the “AF (breathing rate) dimension number, Film” value turned out to be 3.90; the “HR (heart rate) dimension number, Film” value is 3.61; the “SCL (skin conductance level) dimension number, Film” value is 4.90. Also, in assay [3] (reaction test, group sum), the “AF (breathing rate) dimension number, RT” value is 3.58; the “HR (heart rate) dimension number, RT” value came out at 3.42; the “SCL (skin conductance level) dimension number, RT” value amounted to 4.05. Moreover, in [3] (setting [8]), the “AF (breathing rate) dimension number, Animals” value was determined as 3.10; the “HR (heart rate) dimension number, Animals” value is given as 3.49; the “SCL (skin conductance level) dimension number, Animals” value stood at 4.67. In addition, in assay [3] (sum parameters, tendency, especially in the active test sequences), the “performance ability for the problem solutions (ability to be stressed)” value is “higher performance ability”. Besides, the number of blinks entry in assay [4] (all test methods, compared with Energy group) was “markedly lower”. Further, the “enhancement of gaze latencies in the after state” value in assay [4] (real film sequences, before/after) is given as “low enhancements”. For the same molecule, in the assay with NMNAT1, the “increase of expression of NMNAT1” value is given as 40%.
For the molecule `O=C(/C=C/c1cccnc1)NCCCCC1CCN(C(=O)c2ccccc2)CC1` [FK866], the “effect of FK866 on cell viability” value with 293mitoPARP cells [1] (FIG. 3A) and in the assay with HeLa S3 cells [2] (FIG. 3B) was “cell death” throughout.
`O=C(O)c1cccnc1` [NA, nicotinic acid]: the “mitochondrial NAD+ content/formation with substance as extracellular precursor” value (“mitochondrial NAD+ content/formation” below) with 293mitoPARP cells [5] is “able to restore”. Also, the “cell survival with substance as extracellular precursor” value (“cell survival with substance” below) with 293mitoPARP cells [1] is recorded as “able to restore”. For the same molecule, in the assay on HeLa S3 cells [2], the “cell survival with substance” value was “restoration of survival”. In addition, in the assay with HepG2 cells, the “generation of mitochondrial NAD+ with substance as extracellular precursor” value was “not able to provide support” and the “survival/viability of the cell with substance as extracellular precursor” value was “not able to provide support”.
On to `NC(=O)c1ccc[n+]([C@@H]2O[C@H](COP(=O)([O-])OP(=O)(O)OC[C@H]3O[C@@H](n4cnc5c(N)ncnc54)[C@H](O)[C@@H]3O)[C@@H](O)[C@H]2O)c1` [NAD^+, nicotinamide adenine dinucleotide], for which the “mitochondrial PAR formation from the extracellular precursor on overexpression of NRK1” value in the assay on mitochondrial NAD^+ was “considerably improved”.
On to `O=C(O)c1ccc[n+]([C@@H]2O[C@H](COP(=O)(O)O)[C@@H](O)[C@H]2O)c1` [NAMN, nicotinic acid mononucleotide], for which the “mitochondrial NAD+ content/formation” value in the assay with 293mitoPARP cells [5] was “able to restore; also recorded: support mitochondrial NAD^+ formation”. The “cell survival with substance” value in the assay on 293mitoPARP cells [1] is given as “able to restore; also recorded: protect”; with HeLa S3 cells [2] it was “restoration of survival; also recorded: protect”. Besides, the “mitochondrial NAD+ formation with substance as extracellular precursor” value in the assay on HeLa S3 cells [6] was “support mitochondrial NAD^+ formation”. Moreover, the “mitochondrial NAD+ generation of NAMN in presence of dipyridamol and NBTI” value with mitochondrial NAD^+ (compared with NMN, FIG. 4A) was “sensitive to these inhibitors, although less strongly”.
In the case of `O=[N+]([O-])c1ccc(CSc2ncnc3c2ncn3[C@@H]2O[C@H](CO)[C@@H](O)[C@H]2O)cc1` [NBTI], the “effect of the inhibitor on NR usage” value in the assay on mitochondrial NAD^+ was “inhibit the NR usage”. Moreover, the “function of NMN as extracellular NAD+ precursor in presence of the inhibitor” value in the assay with mitochondrial NAD^+ (FIG. 4A) is “lost its function”.
Turning to `NC(=O)c1ccc[n+]([C@@H]2O[C@H](COP(=O)([O-])O)[C@@H](O)[C@H]2O)c1` [NMN, nicotinamide mononucleotide], the “mitochondrial NAD+ content/formation” value in the assay with 293mitoPARP cells [5] is on record as “able to restore; also recorded: support mitochondrial NAD^+ formation”. Further, the figures for the “cell survival with substance” value with 293mitoPARP cells [1] and with HeLa S3 cells [2] were “able to restore; also recorded: protect” and “restoration of survival; also recorded: protect”, respectively. Further, the “mitochondrial NAD+ formation with substance as extracellular precursor” value in the assay on HeLa S3 cells [6] was “support mitochondrial NAD^+ formation”. Further, in the assay on mitochondrial NAD^+, the “mitochondrial PAR formation from the extracellular precursor on overexpression of NRK1” value is “dramatic increase”.
Regarding `Cc1nc(N=Nc2ccc(S(=O)(=O)O)cc2S(=O)(=O)O)c(COP(=O)(O)O)c(C=O)c1O` [PPADS], the “restoration of the mitochondrial NAD+ pool with NAD+ as extracellular precursor” value in the assay with mitochondrial NAD^+ (NPP inhibitor added, cell line not stated) is recorded as “prevents the restoration”. Also, the “survival of the cell with NAD+ as extracellular precursor” value in the assay on human cells was “prevents the restoration”.
For `OCCN(CCO)c1nc(N2CCCCC2)c2nc(N(CCO)CCO)nc(N3CCCCC3)c2n1` [dipyridamol], the “effect of the inhibitor on NR usage” value in the assay with mitochondrial NAD^+ was “inhibit the NR usage”. For the same molecule, in the assay on mitochondrial NAD^+ (FIG. 4A), the “function of NMN as extracellular NAD+ precursor in presence of the inhibitor” value is given as “lost its function”.
